This note sets out measurements from patent publication US20250018019A1, “TREATMENT OF INTERFERON DRIVEN INFLAMMATION” (The Provost, Fellows, Foundation Scholars and the other …, priority 2023, published 2025).

SMILES strings stand for the structures. Counter-ions that a name gives are not always drawn.

One assay has as its system BMDMs. As to the kind of experiment: Seahorse XF Glycolysis Stress Test (ECAR). It is filed as cell-based, mouse. Conditions: BMDMs pre-treated 3 h, LPS 4 h. Here is the method: All compounds used DMSO as a vehicle except for 4-hydroxy tamoxifen (EtOH), NAC (PBS), and AOAA for tracing experiments (Media). LPS was used at a concentration of 100 ng/ml for indicated timepoints (2, 3, 4, 6, 8, 24, 48 h). FHIN1 (10 or 20 μM), MMF (50 or 100 μM), DMF (25 μM), AOAA (5 mM), oligomycin (10 μM), CCCP (50 μM) NAC (1 mM), and IMT1 (10 μM) pre-treatments were performed for 3 h prior the addition of LPS. Cells were treated with valinomycin (10 nM) 15 mins before LPS stimulation. Anti-CD210 or IgG control (10 μg/ml) antibodies were added to cells 1 h prior to LPS stimulation. Recombinant mouse IL-10 protein (100 ng/ml) was added to cells at the same time as LPS. Cells were treated with IFN-B1 (220 ng/ml) for 3 h. Cells were treated with C-178 (1 μM) 1 h prior to LPS stimulation or transfection with 2′3′-cGAMP (1.5 μg/ml) for 4 hrs to achieve cGAS-STING activation. Cells were treated with ODN 2088 (1 μM) for 1 hr prior to LPS stimulation or transfection with CPG ODN 1826 (1.5 μg/ml) to achieve TLR9 activation. 3 different timepoints of 4-hydroxy tamoxifen (TAM) (600 nM or 2 μM) or EtOH treatment were performed-these are specified in the individual figure legends. For ‘48 h’ treatments EtOH/TAM was added on day 5 of 6 during the BMDM differentiation protocol. On day 6 they were plated with EtOH/TAM (left overnight) and treated the following day. […]

The test system of another assay is human PBMCs. As to the kind of experiment: RT-qPCR gene expression in human PBMCs. It is filed as cell-based. Conditions: LPS-stimulated human PBMCs, LPS 4 h. The procedure: Human blood samples from healthy donors were collected and processed at the School of Biochemistry and Immunology in TBSI (TCD). Blood samples were obtained anonymously and written informed consent for the use of blood for research purposes has been obtained from the donors. All the procedures involving experiments on human samples have been approved by the School of Biochemistry and Immunology Research Ethics Committee (TCD). Experiments were conducted according to the TCD guide on good research practice, which follows the guidelines detailed in the National Institutes of Health Belmont Report (1978) and the Declaration of Helsinki. […] The remaining pellet of mononuclear cells was resuspended, counted, and plated at 1×10^6 cells/ml in RPMI supplemented with FCS (10%) and penicillin/streptomycin (1%). […]
RNA extraction from cells was carried out using a Purelink™ RNA kit (Invitrogen) according to the manufacturer's instructions. […] Isolated RNA was quantified using a NanoDrop 2000 spectrophotometer, and RNA concentration was normalised to the lowest concentration across all samples with RNAse-free water. If necessary, samples were DNAse-treated after quantification using DNAse I (Thermo Fisher) according to the manufacturer's instructions. […]
Background: Real-time PCR tracks product formation cycle by cycle.

In the case of `COC(=O)/C=C/C(=O)OC` [DMF, dimethyl fumarate], the “glycolysis (ECAR)” value in the assay on BMDMs was “suppressed glycolysis”.
With `CCOC(=O)[C@@]12CCCC=C1N(Cc1ccc(-c3ccccc3)cc1)C(=O)[C@H]2CC(=O)NC` [FHIN1, Fumarate hydratase-IN-1], in the assay on human PBMCs, the IL10 expression result is listed as “suppressed” and the Tnfa expression entry is “increased”.
